Assay results from US12257247B2 (Monte Rosa Therapeutics AG, priority 2023, dated 2025).
Like-named read-outs stand apart in the source and are kept apart here.

Target: T1, VAV1 (Homo sapiens, UniProt P15498+Q96SW2)
T1 construct: A heterozygous VAV1 C-terminal HiBiT knock-in pool was generated at Monte Rosa Therapeutics from a clonal Jurkat cell; endogenous in cells; host or cells: Jurkat clone stably expressing LgBiT, homozygous GSPT1-G575N; heterozygous VAV1-HiBiT knock-in pool
Experiment: VAV1 degradation activity, VAV1-HiBiT knock-in Jurkat luminescence assay (Example A, Table 1)
Format: cell-based
Conditions: VAV1-HiBiT knock-in Jurkat cells; for Dmax: Jurkat
Procedure: Cells were plated at 10,000 cells per well using Multiflo (BioTek) or Multi Drop Combi (Thermo Fisher) in 384-well white solid bottom plates (Corning, 3570BC) in 25 ul volume in RPMI 1640 media (Thermo Fischer, 22400105) containing 10% FBS (Corning, 35-075-CV), 1% Penicillin/Streptomycin (ThermoFisher Scientific, 15140-122), and 1% Endurazine (Nano-Glo Endurazine Live Cell Substrate (Promega, N2571)). Cells were incubated for ˜16 hours at 37° C., 5% CO2. 25 nL of a compound at 10 μM were dosed into the plate using an Echo® 650 liquid handler (Labcyte). Cells were incubated at 37° C., 5% CO2 and signal was read at 6 and 24 hours after compound addition on a Pherastar FSX using “LUM plus” optic module.
Analysis was performed in Scinamic (Scinamic, Cambridge, MA). Luminescence response (R) was calculated by the formula: response=100*(S−N)/(P−N) where S is the signal of the well, N and P the mean negative and positive control values respectively of the same plate. The luminescence response was then fitted in Scinamic using a 3-parameter agonist logistic fit (hillslope=1, EC50>0, top/bottom unconstrained).

[1] = luminescence read at 6 and 24 hours, read-out: VAV1 Dmax %
[2] = luminescence read at 6 and 24 hours, read-out: VAV1 Dmax %, class
[3] = luminescence read at 6 and 24 hours, read-out: VAV1 DC50
[4] = luminescence read at 6 and 24 hours, read-out: VAV1 DC50 (nM), class
[5] = luminescence read at 6 and 24 hours after compound addition, read-out: VAV1 Dmax %
[6] = luminescence read at 6 and 24 hours after compound addition, read-out: VAV1 Dmax %, class
[7] = luminescence read at 6 and 24 hours after compound addition, read-out: VAV1 DC50
[8] = luminescence read at 6 and 24 hours after compound addition, read-out: VAV1 DC50 (nM), class

Row | Compound | Dmax [1] [%] | Dmax [2] [%] | DC50 [3] [nM] | DC50 [4] [nM] | Dmax [5] [%] | Dmax [6] [%] | DC50 [7] [nM] | DC50 [8] [nM]
1 | Nc1cc(-c2cccc(C3CCC(=O)NC3=O)c2Cl)ccc1Cl (centres unmarked) [Compound 138] | 84.6 | 60 to 90 | 604 | 100 to 1000 | – | – | – | –
2 | COC1(CN2C(=O)Cc3cc(-c4cccc(C5CCC(=O)NC5=O)c4Cl)ccc32)CC1 (centres unmarked) [Compound 391, 3-(2-chloro-3-(1-((1-methoxycyclopropyl)methyl)-2-oxoindolin-5-yl)phenyl)piperidine-2,6-dione] | 54 | < 60 | 5110 | > 1000 | – | – | – | –
3 | O=C1CCC(c2cccc(-c3ccc(CN4C(=O)CCn5nccc54)cc3)c2Cl)C(=O)N1 (centres unmarked) [Compound 253] | 87.7 | 60 to 90 | 29.6 | ≤ 100 | – | – | – | –
4 | O=C1CCC(c2cccc(-c3ccc(C4(n5ccccc5=O)CC4)cc3)c2Cl)C(=O)N1 (centres unmarked) [Compound 241, 3-[2-chloro-3-[4-[1-(2-oxo-1-pyridyl)cyclopropyl]phenyl]phenyl]piperidine-2,6-dione] | 77 | 60 to 90 | 920 | 100 to 1000 | – | – | – | –
5 | N#Cc1cc(-c2cccc(C3CCC(=O)NC3=O)c2Cl)ccc1O (centres unmarked) [Compound 112] | 78.2 | 60 to 90 | 119 | 100 to 1000 | – | – | – | –
6 | CN1CCCN(Cc2ncc(-c3cccc(C4CCC(=O)NC4=O)c3Cl)cc2F)C1=O (centres unmarked) [Compound 383, 3-(2-chloro-3-(5-fluoro-6-((3-methyl-2-oxotetrahydropyrimidin-1(2H)-yl)methyl)pyridin-3-yl)phenyl)piperidine-2,6-dione] | 80.2 | 60 to 90 | 113 | 100 to 1000 | – | – | – | –
7 | O=C1CCC(c2cccc(-c3ccc(OCc4c[nH]cn4)cc3)c2Cl)C(=O)N1 (centres unmarked) [Compound 167, 3-(4′-((1H-imidazol-4-yl)methoxy)-2-chloro-[1,1′-biphenyl]-3-yl)piperidine-2,6-dione] | 87.3 | 60 to 90 | 38.5 | ≤ 100 | – | – | – | –
8 | O=C1CCC(c2cccc(-c3cccc(CC4CCC(F)C(=O)N4)c3)c2Cl)C(=O)N1 (centres unmarked) [Compound 270] | 89.6 | 60 to 90 | 31.3 | ≤ 100 | – | – | – | –
9 | O=C1CCC(c2cccc(-c3ccc4c(c3)CCN4)c2Cl)C(=O)N1 (centres unmarked) [Compound 490, 3-(2-chloro-3-(indolin-5-yl)phenyl)piperidine-2,6-dione] | – | – | – | – | 74.5 | 60 to 90 | 131 | 100 to 1000
10 | O=C1CCC(c2cccc(-c3ccc(OCc4cc[nH]n4)cc3)c2Cl)C(=O)N1 (centres unmarked) [Compound 203, 3-(4′-((1H-pyrazol-3-yl)methoxy)-2-chloro-[1,1′-biphenyl]-3-yl)piperidine-2,6-dione] | 94.6 | > 90 | 29.3 | ≤ 100 | – | – | – | –
11 | O=C1CCC(c2cccc(-c3ccc(N4C(=O)CCn5nccc54)cc3)c2Cl)C(=O)N1 (centres unmarked) [Compound 330] | 72.1 | 60 to 90 | 130 | 100 to 1000 | – | – | – | –
12 | Cc1cccc(=O)n1-c1ccc(-c2cccc(C3CCC(=O)NC3=O)c2Cl)cn1 (centres unmarked) [Compound 353, 3-(2-chloro-3-(6-methyl-2-oxo-2H-[1,2′-bipyridin]-5′-yl)phenyl)piperidine-2,6-dione] | 90.7 | > 90 | 62.1 | ≤ 100 | – | – | – | –
13 | O=C1CCC(c2cccc(-c3ccc(OCCN4CCCC4)cc3)c2Cl)C(=O)N1 (centres unmarked) [Compound 136] | 40.9 | < 60 | ≥ 10000 | > 1000 | – | – | – | –
14 | O=C1CCC(c2cccc(-c3cnc(-n4ccccc4=O)c(F)c3)c2Cl)C(=O)N1 (centres unmarked) [Compound 427, 3-(2-chloro-3-(3′-fluoro-2-oxo-2H-[1,2′-bipyridin]-5′-yl)phenyl)piperidine-2,6-dione] | 79.6 | 60 to 90 | 246 | 100 to 1000 | – | – | – | –
15 | Cn1ccc(Cn2c(=O)oc3cc(-c4cccc(C5CCC(=O)NC5=O)c4Cl)ccc32)n1 (centres unmarked) [Compound 507, 3-(2-chloro-3-(3-((1-methyl-1H-pyrazol-3-yl)methyl)-2-oxo-2,3-dihydrobenzo[d]oxazol-6-yl)phenyl)piperidine-2,6-dione] | – | – | – | – | 91.8 | > 90 | 28.6 | ≤ 100
16 | C#Cc1ccc(C2CCC(=O)NC2=O)c(Cl)c1-c1ccc(OCc2ccn(C)n2)cc1 (centres unmarked) [Compound 172, 3-(2-chloro-6-ethynyl-4′-((1-methyl-1H-pyrazol-3-yl)methoxy)-[1,1′-biphenyl]-3-yl)piperidine-2,6-dione] | 24.7 | < 60 | ≥ 10000 | > 1000 | – | – | – | –

Next, values leading:

Row | Dmax [1] [%] | Dmax [2] [%] | DC50 [3] [nM] | DC50 [4] [nM] | Dmax [5] [%] | Dmax [6] [%] | DC50 [7] [nM] | DC50 [8] [nM] | Compound
17 | 95.2 | > 90 | 17.5 | ≤ 100 | – | – | – | – | O=C1CCC(c2cccc(-c3ccc(-n4ccc(F)cc4=O)cc3)c2Cl)C(=O)N1 (centres unmarked) [Compound 245, 3-[2-chloro-3-[4-(4-fluoro-2-oxo-1-pyridyl)phenyl]phenyl]piperidine-2,6-dione]
18 | 99.3 | > 90 | 2.27 | ≤ 100 | – | – | – | – | O=C1CCC(c2cccc(-c3ccc(-n4c(C(F)(F)F)cccc4=O)cc3)c2Cl)C(=O)N1 (centres unmarked) [Compound 443, 3-(2-chloro-4′-(2-oxo-6-(trifluoromethyl)pyridin-1(2H)-yl)-[1,1′-biphenyl]-3-yl)piperidine-2,6-dione]
19 | 97.8 | > 90 | 7 | ≤ 100 | – | – | – | – | O=C1CCC(c2cccc(-c3ccc(Cc4ncco4)c(F)c3)c2Cl)C(=O)N1 (centres unmarked) [Compound 385, 3-(2-chloro-3′-fluoro-4′-(oxazol-2-ylmethyl)-[1,1′-biphenyl]-3-yl)piperidine-2,6-dione]
20 | 84.4 | 60 to 90 | 26.3 | ≤ 100 | – | – | – | – | O=C1CCC(c2cccc(-c3ccc(NC(=O)N4CCCC4)cc3)c2Cl)C(=O)N1 (centres unmarked) [Compound 248, N-(2′-chloro-3′-(2,6-dioxopiperidin-3-yl)-[1,1′-biphenyl]-4-yl)pyrrolidine-1-carboxamide]
21 | 97.2 | > 90 | 4.54 | ≤ 100 | – | – | – | – | O=C1CCC(c2cccc(-c3ccc(Cc4ncccn4)cc3)c2Cl)C(=O)N1 (centres unmarked) [Compound 208]
22 | 93.8 | > 90 | 22.5 | ≤ 100 | – | – | – | – | O=C1CCC(c2cccc(-c3ccc(N4CCN5CCCC5C4=O)cc3)c2Cl)C(=O)N1 (centres unmarked) [Compound 308]
23 | 97.8 | > 90 | 13.4 | ≤ 100 | – | – | – | – | O=C1CCC(c2cccc(-c3ccc(Cc4cccnn4)cc3)c2Cl)C(=O)N1 (centres unmarked) [Compound 453, 3-(2-chloro-4′-(pyridazin-3-ylmethyl)-[1,1′-biphenyl]-3-yl)piperidine-2,6-dione]
24 | 95.6 | > 90 | 9.34 | ≤ 100 | – | – | – | – | Cn1ccc(NCc2ccc(-c3cccc(C4CCC(=O)NC4=O)c3Cl)cc2)n1 (centres unmarked) [Compound 196, 3-(2-chloro-4′-(((1-methyl-1H-pyrazol-3-yl)amino)methyl)-[1,1′-biphenyl]-3-yl)piperidine-2,6-dione]
25 | 94 | > 90 | 15.1 | ≤ 100 | – | – | – | – | O=C1CCC(c2cccc(-c3ccc(Cn4cccn4)cc3)c2Cl)C(=O)N1 (centres unmarked) [Compound 120]
26 | 91 | > 90 | 16.2 | ≤ 100 | – | – | – | – | CN1CCN(Cc2ccc(-c3cccc(C4CCC(=O)NC4=O)c3Cl)cc2)C1=O (centres unmarked) [Compound 388, 3-(2-chloro-4′-((3-methyl-2-oxoimidazolidin-1-yl)methyl)-[1,1′-biphenyl]-3-yl)piperidine-2,6-dione]
27 | 97.8 | > 90 | 3.46 | ≤ 100 | – | – | – | – | O=C1CCC(c2cccc(-c3ccc(N4C(=O)COCC45CC5)cc3)c2Cl)C(=O)N1 (centres unmarked) [Compound 324]
28 | 98.8 | > 90 | 2.43 | ≤ 100 | – | – | – | – | Cc1cnc(Cc2ccc(-c3cccc(C4CCC(=O)NC4=O)c3Cl)cc2)nc1 (centres unmarked) [Compound 420, 3-(2-chloro-4′-((5-methylpyrimidin-2-yl)methyl)-[1,1′-biphenyl]-3-yl)piperidine-2,6-dione]
29 | 90.1 | > 90 | 18.4 | ≤ 100 | – | – | – | – | CC(C)(c1ccc(-c2cccc(C3CCC(=O)NC3=O)c2Cl)cc1)n1ccccc1=O (centres unmarked) [Compound 231, 3-(2-chloro-4′-(2-(2-oxopyridin-1(2H)-yl)propan-2-yl)-[1,1′-biphenyl]-3-yl)piperidine-2,6-dione]
